Laboratory results from patent publication US20250306018A1, “METHODS FOR CHARACTERIZING INTERACTIONS BETWEEN ANALYTES” (Nautilus Subsidiary, Inc., priority 2021, published 2025).

Tested on: serum proteins
Experiment: Binding of fluorescently-labeled detectable probes to a single-analyte array of serum protein conjugates, confocal fluorescent microscopy
Set-up: species or system human
Details: patterned array of serum protein conjugates
Source text: A blood sample is collected from a human medical subject. A serum fraction containing serum proteins is purified from the blood sample via centrifugation of a whole blood sample obtained from the medical subject and collection of the resulting supernatant. The supernatant includes collected serum proteins as well as several impurities, including trace amounts of clotting factors, vitamins, cofactors, nucleic acids, triglycerides, cholesterols, electrolytes (e.g., Ca^2+, Mg^2+, Na^+, K^+, Fe^2+, etc.), trace amounts of non-human antigens (e.g, viral antigens), and trace amounts of the medical subject's prescribed pharmaceuticals. The fraction containing the extracted serum proteins is modified to incorporate a transcyclooctene (TCO) moiety at some of the amine-containing amino acid sidechain of the present proteins. Each modified serum protein is conjugated to a structured nucleic acid particle (SNAP) containing a methyltetrazine (mTz) attachment moiety via a TCO-mTz Click-type reaction to form a plurality of serum protein conjugates. Certain impurities are also conjugated to SNAPs due to cross-reactivity with functionalization reagents and/or methyltetrazine. […]
The patterned array of serum protein conjugates is characterized by cyclical binding of affinity reagents. […] Identities of serum proteins are determined for […] of addresses on the array to beyond a confidence level of 99.9%. […]

VEGF
polypeptide species bound by the detectable probe (addresses with identified serum albumin excluded): fewer polypeptide species | binding affinity of the detectable probe for bound polypeptide species (judged by repeatability of observed binding): low degree of binding affinity
